# Assay results taken from patent publication US20240400584A1, “COMPOUNDS AND METHODS FOR MODULATING SPLICING” (REMIX THERAPEUTICS INC., priority 2021, published 2024).
# Tests used:
# HTT [1] = test: Gene panel canonical junction qPCR assay, HTT CJ mRNA (Table 7); assay type: cell-based, human; details: Homo sapiens, read-out: HTT CJ mRNA decrease IC50
# Description: (§1) Compounds described herein were used to modulate RNA transcript abundance in cells. The expression of a target mRNA was measured by detecting the formation of an exon-exon junction in the canonical transcript (CJ). A compound mediated exon-inclusion event was detected by observing an increase in formation OF A new junction with an alternative exon (AJ). Real-time qPCR assays were used to detect these splicing switches and interrogate the potency of various compounds towards different target Genes. A high-throughput real time quantitative PCR (RT-qPCR) assay was developed to measure these two isoforms of the mRNA (CJ and AJ) for exemplary genes, such as HTT, SMN2, and MYB, together with a control housekeeping gene, GAPDH or GUSB or PPIA, used for normalization. Briefly, the A673 or K562 cell line was treated with various compounds described herein (e.g., compounds of Formula (i)). After treatment, the levels of the HTT, MYB, or SMN2 mRNA targets were determined from each sample of cell lysate by cDNA synthesis followed by qPCR.
# (§2) The data analysis was performed by first determining the ΔCt vs the housekeeper gene. This ΔCt was then normalized against the DMSO control (ΔΔCt) and converted to RQ (relative quantification) using the 2^(−ΔΔCt) equation. The RQ were then converted to a percentage response by arbitrarily setting an assay window of 3.5 and 4.0 ΔCt for HTT-CJ and MYB-CJ respectively and an assay window of 9 and 3 ΔCt for HTT-AJ and MYB-AJ in 96 well format (50,000 K562 cells/well and 15,000 A673 cells per well) and an assay window of 3 and 4 ΔCt for HTT-CJ and MYB-CJ respectively and an assay window of 5 and 3 ΔCt for HTT-AJ and MYB-AJ respectively in 384 well format (8,000 K562 cells/well example). […] The percentage response was then fitted to the 4 parametric logistic equation to evaluate the concentration dependence of compound treatment. The increase in AJ mRNA is reported as AC50 (compound concentration having 50% response in AJ increase) while the decrease in CJ mRNA levels is reported as IC50 (compound concentration having 50% response in CJ decrease).
# (§3) Additional studies were carried out for a larger panel of genes using the protocol provided above. The junction between flanking upstream and downstream exons was used to design canonical junction qPCR assays. At least one of the forward primer, reverse primer or the CY5-labeled 5′ nuclease probe (with 3′ quencher such as ZEN/Iowa Black FQ) was designed to overlap with the exon junction to capture the CJ mRNA transcript. BLAST was used to confirm the specificity of the probeset and parameters such as melting temperature, GC content, amplicon size, and primer dimer formation are considered during their design. Data for the decrease in CJ mRNA levels for four exemplary genes (HTT, SMN2, MYB, and Target C) analyzed in this panel are reported as IC50 (compound concentration having 50% response in CJ decrease).
# MYB [2] = test: Gene panel canonical junction qPCR assay, MYB CJ mRNA (Table 7); assay type: cell-based; details: Homo sapiens, read-out: MYB CJ mRNA decrease IC50
# Description: as §1, §2, §3
# MYB [3] = test: RT-qPCR splicing assay, MYB AJ/CJ mRNA; assay type: cell-based; details: Homo sapiens, A673 or K562 cells, 24 hours; for IC50: decrease in canonical junction mRNA; for AC50: increase in alternative junction mRNA
# Description: as §1
# (§4) The A673 cell line was cultured in DMEM with 10% FBS. Cells were diluted with full growth media and plated in a 96-well plate (15,000 cells in 100 ul media per well). The plate was incubated at 37° C. with 5% CO2 for 24 hours to allow cells to adhere. An 11-point 3-fold serial dilution of the compounds was made in DMSO then diluted in media in an intermediate plate. Compounds were transferred from the intermediate plate to the cell plate with the top dose at a final concentration of 10 uM in the well. Final DMSO concentration was kept at or below 0.25%. The cell plate was returned to the incubator at 37° C. with 5% CO2 for an additional 24 hours.
# (§5) The K562 cell line was cultured in IMDM with 10% FBS. For K562, cells were diluted with full growth media and plated in either a 96-well plate (50,000 cells in 50 uL media per well) or a 384-well plate (8,000-40,000 cells in 45 uL media per well). An 11-point 3-fold serial dilution of the compounds were made in DMSO then diluted in media in an intermediate plate. Compound was transferred from the intermediate plate to the cell plate with the top dose at a final concentration of 10 uM in the well. Final DMSO concentration was kept at or below 0.25%. Final volume was 100 uL for 96-well plate and 50 uL for 384-well plate. The cell plate was then placed in an incubator at 37° C. with 5% CO2 for 24 hours.
# (§6) The cells were then gently washed with 50 uL-100 uL Cold Pbs before proceeding to addition of lysis buffer. 30 uL-50 μL of room temperature lysis buffer with DNAse I (and optionally RNAsin) was added to each well. Cells were shaken/mixed thoroughly at room temperature for 5-10 minutes for lysis to take place and then 3 uL-5 μL of room temperature stop solution was added and wells were shaken/mixed again. After 2-5 minutes, the cell lysate plate was transferred to ice for RT-qPCR reaction setup. The lysates could also be frozen at −80° C. for later use.
# (§7) In some cases, a direct lysis buffer was used. an appropriate volume of 3× lysis buffer (10 mM tRis, 150 mM NaCl, 1.5%-2.5% Igepal and 0.1-1 U/uL RNAsin, pH 7.4) was directly added to either K562 or A673 cells in media and mixed by pipetting 3 times. The plates were then incubated at room temperature with shaking/rocking for 20-50 minutes to allow for lysis to take place. After this time, the cell lysate plate was transferred to ice to set up for the RT-qPCR reactions. The lysates could also be frozen at −80° C. for later use.
# (§8) To set up 10 uL RT-QpcR reactions, cell lysates were transferred to 384-well qPCR plates containing the master mix according to the table below. The plates were sealed, gently vortexed, and spun down before the run. The volumes were adjusted accordingly in some instances where the reaction was carried in 20 µL. The table below summarizes the components of the RT-qPCR reactions:
# (§9) The RT-qPCR reaction was performed using a QuantStudio (ThermoFisher) under the following fast cycling conditions. […]
# SMN2 = test: Gene panel canonical junction qPCR assay, SMN2 CJ mRNA (Table 7); assay type: cell-based; details: Homo sapiens, read-out: SMN2 CJ mRNA decrease IC50
# Description: as §1, §2, §3
# Target C = test: Gene panel canonical junction qPCR assay, Target C CJ mRNA (Table 7); assay type: cell-based, human; details: Homo sapiens, read-out: Target C CJ mRNA decrease IC50
# Description: as §1, §2, §3
# HTT [4] = test: RT-qPCR splicing assay, HTT AJ/CJ mRNA; assay type: cell-based, human; details: Homo sapiens, 24 h, A673 or K562 cells; for IC50: decrease in canonical junction mRNA; for AC50: increase in alternative junction mRNA
# Description: as §1, §4, §5, §6, §7, §8, §9
SMILES,IC50 (HTT [1]) [µM],IC50 (MYB [2]) [µM],IC50 (MYB [3]) [µM],IC50 (SMN2) [µM],IC50 (Target C) [µM],IC50 (HTT [4]) [µM],AC50 (MYB [3]) [µM],AC50 (HTT [4]) [µM]
CC1(C)CC(Nc2ccc3c(n2)CCOc2cc(-n4cccn4)ccc2-3)CC(C)(C)N1 [Compound 137],> 10,> 10,> 10,> 10,1 to 10,1 to 10,> 10,1 to 10
c1cnn(-c2ccc3c(c2)OCCc2cc(N[C@@H]4C[C@H]5CC[C@@H](C4)N5)ccc2-3)c1 [Compound 139],> 10,> 10,> 10,> 10,> 10,> 10,> 10,> 10
CN(c1ccc2c(n1)OCc1cc(-c3cnn(C)c3)ccc1-2)[C@@H]1C[C@H]2CC[C@@H](C1)N2 [Compound 150],< 0.1,0.1 to 1,0.1 to 1,> 10,0.1 to 1,< 0.1,0.1 to 1,< 0.1
c1cnn(-c2ccc3c(c2)COc2nc(N4CC5(CCNCC5)C4)ccc2-3)c1 [Compound 167],> 10,> 10,> 10,> 10,> 10,> 10,> 10,> 10
CN(c1ccc2c(n1)OCc1cc(-n3cc(N)cn3)ccc1-2)[C@@H]1C[C@H]2CC[C@@H](C1)N2 [Compound 172],0.1 to 1,0.1 to 1,0.1 to 1,< 0.1,0.1 to 1,0.1 to 1,0.1 to 1,0.1 to 1
CN(c1ccc2c(n1)OCc1cc(-n3cccn3)ccc1-2)C1CCNCC1 [Compound 175],> 10,> 10,> 10,1 to 10,> 10,> 10,> 10,1 to 10
[2H]C([2H])([2H])N(c1ccc2c(n1)OCc1cc(-n3cccn3)ccc1-2)C1CCNCC1 [Compound 176],1 to 10,> 10,> 10,1 to 10,> 10,1 to 10,> 10,1 to 10

# Continued, in another order:
IC50 (HTT [1]) [µM],IC50 (MYB [2]) [µM],IC50 (MYB [3]) [µM],IC50 (SMN2) [µM],IC50 (Target C) [µM],IC50 (HTT [4]) [µM],SMILES,AC50 (MYB [3]) [µM],AC50 (HTT [4]) [µM]
> 10,> 10,> 10,> 10,> 10,> 10,c1cnn(-c2ccc3c(c2)COc2nc(N4CC5(CCCNC5)C4)ccc2-3)c1 [Compound 168],> 10,> 10
0.1 to 1,0.1 to 1,0.1 to 1,0.1 to 1,0.1 to 1,0.1 to 1,c1cnn(-c2ccc3c(c2)COc2nc(N4CCC5(CC4)CNC5)ccc2-3)c1 [Compound 169],0.1 to 1,0.1 to 1
1 to 10,> 10,> 10,1 to 10,> 10,1 to 10,CN1C[C@@H]2CN(c3ccc4c(n3)OCc3cc(-n5cccn5)ccc3-4)C[C@@H]2C1 [Compound 170],1 to 10,1 to 10
1 to 10,1 to 10,1 to 10,0.1 to 1,1 to 10,1 to 10,CC1(C)CC(Oc2ccc3c(n2)OCc2cc(-n4cccn4)ccc2-3)CC(C)(C)N1 [Compound 171],1 to 10,1 to 10
> 10,> 10,> 10,1 to 10,> 10,> 10,c1cnn(-c2ccc3c(c2)COc2nc(N4CCNCC4)ccc2-3)c1 [Compound 173],> 10,> 10
> 10,> 10,> 10,1 to 10,> 10,> 10,c1cnn(-c2ccc3c(c2)COc2nc(NC4CCNCC4)ccc2-3)c1 [Compound 174],> 10,> 10
